The test system of one assay is HCE cells. As to the kind of experiment: Cell sprouting assay, HCE cells embedded in MATRIGEL
The assay is classed as cell-based, Human. Conditions: 50 μM, 72 hours, compared to vehicle only control. The procedure:
Cell Sprouting Assay. A cell sprouting assay was performed using HCE cells in a solubilized basement membrane sold under the tradename MATRIGEL® (reduced and diluted in MEM 1:1; Corning Life Sciences, Tewksbury, Mass.). HCE cells were embedded in the solubilized basement membrane at 5×10^5 cells/10 μL spot. The cell spotted plates were then exposed to reduced serum media (0.5% FBS) (untreated negative control), Hst5 (50 μM), or 10% FBS (positive control). HCE cell migration was then followed with time lapse microscopy and imaged at 4× (Image Express Micro; Molecular Devices, CA). Cell covered area at a given time point was measured using Image J.
A cell sprouting assay using HCE cells embedded as a spot in growth factor reduced solubilized basement membrane sold under the tradename MATRIGEL® (Corning Life Sciences, Tewksbury, Mass.) was used to determine if HST5 could promote epithelial cell migration. […] A standardized scratch assay using the HCLE cell line tested the effects of Hst5 on cell migration. HCLE cells were grown to confluence and mechanically scratched using a pipette tip. Cells were treated with different concentrations (20, 50, 80 and 100 μM) of Hst5 or left untreated as a control. Time-lapse microscopy was performed and wound areas were analyzed at different time points. […] The most significant increase in scratch closure rates was noticed at 50 μM. […]

For assay [1], the system named is epithelial cell migration. The assay is described as follows: In vitro scratch assay, truncation and scrambled peptide series (FIG. 1; cell line not given). The format is cell-based. Conditions: 80 μM; FIG. 1; vs untreated control. The procedure: Peptides were tested for efficacy in accelerating scratch closure rates. Negative controls included untreated and multiple scrambled peptide (SP) controls. All peptides were tested at 80 μM concentration. All experiments were performed in triplicate with three technical replicates for each experiment. Statistical significance was determined by one-way ANOYA with Dunnett's post-hoc test. *p<0.05; **p<0.01; ***p<0.001. Relative closure=(% closure of treated sample)/(% closure of Untreated control).
In Vitro Scratch Assay. HCE, HCLE, HELA and MCF-7 cells were cultured in a 24-well plate at 2.5×10^5 (cells/well) seeding density, and were grown to confluence on a 24-well plate. Subsequently, a straight-line scratch mark was made with a sterile P200 pipette tip. The cells were then washed twice with phosphate-buffered saline (PBS) to remove cellular debris. Wounded areas were then treated with the peptides provided in Table 5 at various concentrations in standard medium with reduced serum conditions (0.5% FBS in MEM medium (HCE), growth factor-free K-SFM media (HCLE), 1% FBS in DMEM medium (HeLa) and 0.5% FBS in RPMI 1640 medium (MCF-7)). Scratches were photographed microscopically at 4× magnification (Image Express Micro, Molecular Devices, San Jose, Calif.) every hour over the course of the experiment. The wound area at each time-point was measured using Image J software (Image J 1.47v, NIH, Thornwood, Bethesda, Md.). Relative wound closure was calculated by dividing the closure of the treated wound by that of the untreated wound. For all the experiments including truncated histatin-5, a final concentration of 80 μM was used. PD98059 (Calbiochem, San Diego, Calif.) at final concentration of 50 μM was used as a specific inhibitor of MEK. PD98059 was added to cell cultures at the same time as histatin peptides.
To identify the residues of Hst5 required for epithelial cell migration, serial truncation experiments were performed, progressively deleting residues in Hst5. […] All peptides were tested at 80 μM. […] Thus, the SHRGY (SEQ ID NO:2) sequence is necessary and sufficient to promote epithelial migration rates in in vitro scratch assays.

A further assay deals with pERK1/2. The assay is described as follows: Western blot for pERK1/2 after wounding. The assay is classed as cell-based. Conditions: wounded cells, compared with wounding alone. Here is the method: Western Blot. Western blot was performed following standard methods. Protein lysate (20 μg) was boiled in NuPAGE™ LDS sample buffer (Invitrogen, Carlsbad, Calif.) for 10 minutes and then subjected to electrophoresis on 12% NuPAGE™ Bis-Tris gels (Invitrogen, Carlsbad, Calif.), followed by transfer to nitrocellulose membranes (Amersham Protran, GE Healthcare, Pittsburgh, Pa.). Membranes were then blocked with Tris-buffered saline containing 3% nonfat dry milk for 1 hour and incubated with primary antibody against pERK1/2 (Cell Signaling, Danver, Mass.) (1:1000) overnight at 4° C. After washing in 0.05% Tris-buffered saline containing 0.05% polysorbate 20, membranes were then incubated for 1 hour with goat anti-rabbit-HRP (BD Biosciences, San Jose, Calif.) (1:2000) as the secondary antibody. The membranes were developed using X-ray film and ECL Pro solution (PerkinElmer, Waltham, Mass.). Beta-actin was used as an internal control.
The level of activation/phosphorylation of ERK with and without wounding and with and without Hst5 application were investigated to determine whether the cellular signaling pathways underpinning the pro-migratory effects of Hst5 were similar to those of Hst1 in other epithelial cell types. Wounding causes an increased in phosphorylated form of ERK1/2 (p-ERK1/2). […]
Background: In western blotting, separated proteins are transferred to a membrane and probed.

With DSHAKRHHGYKRKFHEKHHSHRGY [Hst5], in the assay on HCE cells, the “cell migration (cell sprouting)” value is on record as “statistically significant increase in cell migration”. Further, the “scratch (wound) closure rates, relative closure” value in assay [1] is on record as “significant increases in scratch closure rates”. Moreover, in the assay on pERK1/2, the “pERK1/2 levels (Western blot)” value is given as “further increased”.

The values above are taken from patent US20230027620A1, “PENTAPEPTIDE AND METHODS OF USE THEREOF” (THE BOARD OF TRUSTEES OF THE UNIVERSITY OF ILLINOIS, priority 2019, published 2023).
